Columns and labels:
[1] = molecular target: T1, Prostaglandin G/H synthase 1 (Ovis aries) (UniProt P05979); test: Inhibition of ovine COX-1 assessed as production of PGE2 using arachidonic acid as a substrate preincubated for 60 mins at 100 uM followed by substrate addition and measured after 2 mins by ELISA analysis relative to control; conditions: time 62.0 min
T1 sequence (whole entry): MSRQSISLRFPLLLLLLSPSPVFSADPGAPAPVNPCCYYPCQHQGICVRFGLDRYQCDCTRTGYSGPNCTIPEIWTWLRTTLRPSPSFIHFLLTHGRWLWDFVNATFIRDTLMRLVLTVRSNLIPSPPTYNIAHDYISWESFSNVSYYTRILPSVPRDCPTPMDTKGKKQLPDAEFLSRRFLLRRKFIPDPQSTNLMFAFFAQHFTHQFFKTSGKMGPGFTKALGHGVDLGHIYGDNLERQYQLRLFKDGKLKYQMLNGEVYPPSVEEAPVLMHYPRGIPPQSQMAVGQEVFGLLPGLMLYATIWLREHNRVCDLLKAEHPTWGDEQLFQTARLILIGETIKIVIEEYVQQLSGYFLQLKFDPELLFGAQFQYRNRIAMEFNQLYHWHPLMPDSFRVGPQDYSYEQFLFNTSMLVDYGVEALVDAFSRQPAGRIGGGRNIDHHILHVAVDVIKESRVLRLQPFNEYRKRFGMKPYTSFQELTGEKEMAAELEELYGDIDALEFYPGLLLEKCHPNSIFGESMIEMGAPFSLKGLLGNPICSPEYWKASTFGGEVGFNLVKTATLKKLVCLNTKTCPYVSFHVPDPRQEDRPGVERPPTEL

[2] = molecular target: T1, Prostaglandin G/H synthase 1 (Ovis aries); test: Inhibition of ovine COX-1 assessed as production of PGE2 using arachidonic acid as a substrate preincubated for 60 mins at 10 uM followed by substrate addition and measured after 2 mins by ELISA analysis relative to control
[3] = molecular target: T1, Prostaglandin G/H synthase 1 (Ovis aries); test: Inhibition of ovine COX-1 assessed as production of PGE2 using arachidonic acid as a substrate preincubated for 60 mins at 1 uM followed by substrate addition and measured after 2 mins by ELISA analysis relative to control
[4] = molecular target: T1, Prostaglandin G/H synthase 1 (Ovis aries); test: Inhibition of ovine COX-1 assessed as production of PGE2 using arachidonic acid as a substrate preincubated for 60 mins at 0.1 uM followed by substrate addition and measured after 2 mins by ELISA analysis relative to control
[5] = molecular target: T2, Prostaglandin G/H synthase 1 (Ovis aries, UniProt P05979); test: Inhibition of ovine COX-1 assessed as production of PGE2 using arachidonic acid as a substrate preincubated for 60 mins followed by substrate addition and measured after 2 mins by ELISA analysis
T2 sequence (P05979 whole entry): T1 sequence (whole entry)

[6] = Solubility of the compound in water; assay type: physicochemical; conditions: buffer
Mus musculus [7] = test: Antiinflammatory activity in mouse xylene induced ear edema model assessed as ear weight difference at 30 mg/kg, po once daily administered for 3 days prior to xylene stimulation and measured after 30 mins (reference value: 13.64 =/- 2.55 mg); assay type: functional; conditions: time 3 day
Mus musculus [8] = test: Antiinflammatory activity in mouse xylene induced ear edema model assessed as inhibition of auricular edemas at 30 mg/kg, po once daily administered for 3 days prior to xylene stimulation and measured after 30 mins relative to control; assay type: functional; conditions: 72 h, time 3 day
Mus musculus [9] = test: Analgesic activity in mouse model of acetic-acid induced writhing assessed as number of writhes at 30 mg/kg, po once daily administered for 3 days prior to acetic acid injection measured after 20 mins (reference value: 29.13+/-9.36); assay type: functional; conditions: time 3 day
Mus musculus [10] = test: Analgesic activity in mouse model of acetic-acid induced writhing assessed as inhibition of writhing at 30 mg/kg, po once daily administered for 3 days prior to acetic acid injection measured after 20 mins relative to control; assay type: functional; conditions: 72 h, time 3 day
[11] = molecular target: T3, Prostaglandin G/H synthase 2 (Homo sapiens, UniProt P35354); test: Inhibition of human recombinant COX-2 assessed as production of PGE2 using arachidonic acid as a substrate preincubated for 60 mins followed by substrate addition and measured after 2 mins by ELISA analysis
T3 sequence (P35354 whole entry): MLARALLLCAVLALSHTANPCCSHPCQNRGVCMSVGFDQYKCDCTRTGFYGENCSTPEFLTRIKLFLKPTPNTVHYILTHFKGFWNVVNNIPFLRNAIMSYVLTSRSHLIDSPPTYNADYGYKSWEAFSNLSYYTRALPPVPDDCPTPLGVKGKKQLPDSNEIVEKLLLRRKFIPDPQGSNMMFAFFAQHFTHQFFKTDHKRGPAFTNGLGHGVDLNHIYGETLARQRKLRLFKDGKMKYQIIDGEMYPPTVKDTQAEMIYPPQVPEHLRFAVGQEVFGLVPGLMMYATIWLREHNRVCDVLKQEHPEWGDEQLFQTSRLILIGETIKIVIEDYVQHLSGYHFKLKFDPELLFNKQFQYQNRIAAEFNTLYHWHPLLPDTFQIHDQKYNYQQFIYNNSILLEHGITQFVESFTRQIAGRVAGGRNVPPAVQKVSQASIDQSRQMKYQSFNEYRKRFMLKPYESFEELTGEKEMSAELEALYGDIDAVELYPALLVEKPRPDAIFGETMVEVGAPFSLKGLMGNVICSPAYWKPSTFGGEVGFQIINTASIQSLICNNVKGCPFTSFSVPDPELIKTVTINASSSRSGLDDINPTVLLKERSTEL

[12] = Selectivity index, ratio of IC50 for ovine COX-1 to IC50 for human COX-2

Row | inhibition [1] [%] | inhibition [2] [%] | inhibition [3] [%] | inhibition [4] [%] | IC50 [5] [nM] | solubility [6] | IC50 [11] [nM] | Ratio [12] | Structure (SMILES) | Activity (Mus musculus [7]) [mg] | inhibition in vivo at 30 mg/kg (Mus musculus [8]) [%] | Activity (Mus musculus [9]) | inhibition in vivo at 30 mg/kg (Mus musculus [10]) [%]
1 | 6 | 1 | -3 | 10 | – | – | – | – | Cc1ccc(-c2cc(-c3ccccc3)n(S(=O)(=O)Oc3ccccc3)n2)cc1 | – | – | – | –
2 | 27 | 13 | 7 | 4 | – | – | – | – | Cc1cc(-c2ccc3ccccc3c2)nn1S(=O)(=O)Oc1ccccc1 | – | – | – | –
3 | 21 | 47 | 39 | 20 | 18100 | – | – | – | Cc1ccc(-c2cc(C(C)C)n(S(=O)(=O)Oc3ccccc3)n2)cc1 | – | – | – | –
4 | 30 | 29 | 21 | 19 | > 100000 | – | – | – | COc1ccc(-c2cc(C)n(S(=O)(=O)Oc3ccccc3)n2)cc1 | – | – | – | –
5 | – | – | – | – | – | Insoluble | – | – | CC(COCCOCCOCCOCCOCCOCCOCCOCCOCCOCCOCCOCCOCCOCCOCCOCCOCCOCCOCCOCCOCCOCCOCCOCCOCCOCCOCCOCCOCCOCCOCCOCCOCCOCCOCCOCCOCCOCCO)OCC(C)OCC(C)OCC(C)OCC(C)OCC(C)OCC(C)OCC(C)OCC(C)OCC(C)OCC(C)OCC(C)OCC(C)OCC(C)OCC(C)OCC(C)OCC(C)OCC(C)OCC(C)OCC(C)OCC(C)OCC(C)OCC(C)OCC(C)OCC(C)OCC(C)OCC(C)OCC(C)OCC(C)OCC(C)OCCOCCOCCOCCOCCOCCOCCOCCOCCOCCOCCOCCOCCOCCOCCOCCOCCOCCOCCOCCOCCOCCOCCOCCOCCOCCOCCOCCOCCOCCOCCOCCOCCOCCOCCOCCOCCOCCO (stereo not drawn) | 13.64 | 0 | 29.13 | 0
6 | 34 | 24 | 23 | 19 | – | – | – | – | Cc1cc(-c2cccnc2)nn1S(=O)(=O)Oc1ccccc1 | – | – | – | –
7 | 14 | 5 | 17 | 8 | – | Insoluble | 110 | – | Cc1cc(-c2cccc(Cl)c2)nn1S(=O)(=O)Oc1ccccc1 | 8.18 | 10 | 23.63 | 18.9
8 | 53 | 33 | – | – | 72300 | Insoluble | – | – | Cc1cccc(-c2cc(C)n(S(=O)(=O)Oc3ccccc3)n2)c1 | 12.46 | 8.7 | 16.38 | 43.8
9 | 42 | 55 | 63 | 65 | – | – | 11100 | – | Cc1ccccc1-c1cc(C)n(S(=O)(=O)Oc2ccccc2)n1 | – | – | – | –
10 | 83 | 80 | 56 | 51 | 90 | – | 5.8 | 16 | Cc1cc(-c2ccccn2)nn1S(=O)(=O)Oc1ccc(Cl)cc1 | – | – | – | –
11 | 70 | 71 | 68 | 45 | 140 | – | 200 | 1 | Cc1cc(-c2ccc(Br)cc2)nn1S(=O)(=O)Oc1ccccc1 | – | – | – | –
12 | 19 | 14 | 9 | 4 | > 100000 | – | 92 | > 1090 | Cc1ccc(-c2cc(C)n(S(=O)(=O)Oc3ccccc3I)n2)cc1 | – | – | – | –
13 | 38 | 33 | 24 | 18 | > 100000 | – | – | – | Cc1cc(-c2cccs2)nn1S(=O)(=O)Oc1ccccc1 | – | – | – | –
14 | 68 | 44 | 36 | 27 | 9380 | Insoluble | < 10 | > 938 | O=S(=O)(Oc1ccccc1)n1nc(-c2ccccc2)cc1-c1ccccc1 | 10.13 | 25.7 | 17.75 | 39.1
15 | -2 | – | – | – | – | – | > 10000 | – | Cc1cc(-c2ccc(F)cc2)nn1S(=O)(=O)Oc1ccccc1 | – | – | – | –
16 | 30 | 31 | 30 | 18 | > 100000 | – | – | – | Cc1ccc(-c2cc(C)n(S(=O)(=O)Oc3ccc(C)c(C)c3)n2)cc1 | – | – | – | –
17 | 29 | 29 | 39 | 25 | – | Insoluble | 100 | – | Cc1cc(-c2ccccn2)nn1S(=O)(=O)Oc1ccccc1 | 12.1 | 11.3 | 24.75 | 15
18 | 61 | 43 | 40 | 36 | – | – | – | – | Cc1cc(-c2ccncc2)nn1S(=O)(=O)Oc1ccccc1 | – | – | – | –
19 | 43 | 20 | 18 | 16 | > 100000 | – | – | – | Cc1cc(-c2ccc(Cl)cc2)nn1S(=O)(=O)Oc1ccccc1 | – | – | – | –
20 | – | – | – | – | – | – | > 100000 | – | Cc1cc(-c2ccccc2)nn1S(=O)(=O)Oc1ccccc1C(F)(F)F | – | – | – | –
21 | 60 | 55 | 55 | 61 | – | – | – | – | Cc1cc(-c2ccccc2Cl)nn1S(=O)(=O)Oc1ccccc1 | – | – | – | –
22 | 22 | 18 | 32 | 33 | – | Insoluble | < 10 | – | Cc1cc(-c2ccc(C(F)(F)F)cc2)nn1S(=O)(=O)Oc1ccccc1 | 8.75 | 35.9 | 21.63 | 25.8
23 | – | – | -1 | 11 | – | Insoluble | – | – | CCc1ccc(-c2cc(C)n(S(=O)(=O)Oc3ccccc3)n2)cc1 | 10.76 | 21.1 | 15.13 | 48.1
24 | – | – | – | 47 | – | Insoluble | 31 | – | Cc1cc(-c2ccco2)nn1S(=O)(=O)Oc1ccccc1 | 11.93 | 12.5 | 16.75 | 42.5
